Legend:
Type in all cases: in vivo
Leptochloa chinensis = assay: Test Example 3: herbicidal effect by foliage application, Wagner pot (symbol D); conditions: application herbicide amount 320 g/ha
Summary of the method: (§1)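 In a shallow-flooded alluvial soil system held at 25–30 °C, plants including rice grew for 14 days and were then sprayed over the foliage with emulsion diluted to a fixed herbicide amount. Visual rating followed at 3 weeks.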

Apera spica-venti [1] = assay: Test Example 4: herbicidal effect by soil treatment (symbol L); conditions: application herbicide amount 320 g/ha
Summary of the method: (§2)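 Seeds were sown in sterilized diluvial soil, covered with about 1.5 cm of soil, and the soil surface was sprayed with a water-diluted emulsion of the compound at a predetermined rate. Plants grew in a greenhouse at 25° C. to 30° C.; effects were scored visually 3 weeks after application.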

beet = assay: Test Example 4: effect on crop by soil treatment (symbol f); conditions: application herbicide amount 320 g/ha
Summary of the method: (§3)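 Plants are raised in a greenhouse (25° C. to 30° C.) from spot-sown seed, which sits under about 1.5 cm of sterilized diluvial soil in a box shared with weed species.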

[2] = tested on: directly sowed rice plant; assay: Test Example 3: effect on crop by foliage application, Wagner pot (symbol b); conditions: application herbicide amount 320 g/ha
Summary of the method: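 Steps: fill a 1/10000-are Wagner pot with alluvial soil; add water and mix to submerge at 0.1–0.5 cm depth; sow rice plus Echinochloa crus-galli var. crus-galli, Leptochloa chinensis and Cyperus difformis; grow in a 25–30 °C greenhouse.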

Monochoria vaginalis = assay: Test Example 2: herbicidal activity, application during weed generation in submerged conditions (symbol C); conditions: Table 23; application herbicide amount 320 g/ha; grade 0-5 by criteria of Test Example 1
Summary of the method: (§4)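 Compound was applied as a water-diluted emulsion into the standing water of flooded pots (4 cm) once co-sown weeds reached one to two leaves. Greenhouse temperature was 25° C. to 30° C., soil was alluvial, and each species was rated visually after 3 weeks.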

[3] = tested on: Echinochloa crus-galli var. crus-galli; assay: Test Example 3: herbicidal effect by foliage application, Wagner pot (symbol H); conditions: application herbicide amount 320 g/ha
Summary of the method: as §1

Stellaria media = assay: Test Example 5: herbicidal effect by foliage application, plastic box (symbol P); conditions: 320 g/ha, 3 weeks after application
Summary of the method: (§5)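 Emulsion formulation, diluted with water to the intended rate, was applied uniformly to leaves by small sprayer. Recipients were 14-day greenhouse-grown seedlings (25° C. to 30° C.). Assessment followed at 3 weeks.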

[4] = tested on: Echinochloa crus-galli var. crus-galli; assay: Test Example 4: herbicidal effect by soil treatment (symbol H); conditions: application herbicide amount 320 g/ha
Summary of the method: as §2

Apera spica-venti [5] = assay: Test Example 5: herbicidal effect by foliage application, plastic box (symbol L); conditions: 320 g/ha, 3 weeks after application
Summary of the method: as §5

transplanted rice plant = assay: Test Example 1: effect on crop, application before weed generation in submerged conditions (symbol a); conditions: application herbicide amount 320 g/ha
Summary of the method: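 Rice at 2.5 leaf stage transplanted into submerged soil (4 cm depth) sown with three weed species; herbicide applied before weed emergence.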

Scirpus juncoides = assay: Test Example 2: herbicidal activity, application during weed generation in submerged conditions (symbol B); conditions: Table 23; application herbicide amount 320 g/ha; grade 0-5 by criteria of Test Example 1
Summary of the method: as §4

Abutilon theophrasti = assay: Test Example 5: herbicidal effect by foliage application, plastic box (symbol M); conditions: 320 g/ha, 3 weeks after application
Summary of the method: as §5

rapeseed = assay: Test Example 4: effect on crop by soil treatment (symbol g); conditions: application herbicide amount 320 g/ha
Summary of the method: as §3

Chenopodium album [6] = assay: Test Example 4: herbicidal effect by soil treatment (symbol O); conditions: application herbicide amount 320 g/ha
Summary of the method: as §2

Cyperus difformis = assay: Test Example 3: herbicidal effect by foliage application, Wagner pot (symbol E); conditions: application herbicide amount 320 g/ha
Summary of the method: as §1

Chenopodium album [7] = assay: Test Example 5: herbicidal effect by foliage application, plastic box (symbol O); conditions: 320 g/ha, 3 weeks after application
Summary of the method: as §5

| Structure (SMILES) | herbicidal effect on D (Leptochloa chinensis), grade 0-5 (Leptochloa chinensis) | Herbicidal effect grade, L: Apera spica-venti (Apera spica-venti [1]) | Effect on crop grade, f: beet (beet) | effect on crop b (directly sowed rice plant), grade 0-5 [2] | Herbicidal effect grade, C: Monochoria vaginalis (Monochoria vaginalis) | herbicidal effect on H (Echinochloa crus-galli var. crus-galli), grade 0-5 [3] | P: Stellaria media, herbicidal effect (criteria of Test Example 1) (Stellaria media) | Herbicidal effect grade, H: Echinochloa crus-galli var. crus-galli [4] | L: Apera spica-venti, herbicidal effect (criteria of Test Example 1) (Apera spica-venti [5]) | Effect grade on crop, a: transplanted rice plant (transplanted rice plant) | Herbicidal effect grade, B: Scirpus juncoides (Scirpus juncoides) | M: Abutilon theophrasti, herbicidal effect (criteria of Test Example 1) (Abutilon theophrasti) | Effect on crop grade, g: rapeseed (rapeseed) | Herbicidal effect grade, O: Chenopodium album (Chenopodium album [6]) | herbicidal effect on E, grade 0-5 (Cyperus difformis) | O: Chenopodium album, herbicidal effect (criteria of Test Example 1) (Chenopodium album [7]) |
| --- | --- | --- | --- | --- | --- | --- | --- | --- | --- | --- | --- | --- | --- | --- | --- | --- |
| CC(=O)CC1CC(O)=C(c2c(C)cc(Br)cc2C)C1=O (stereo not shown) [7-002] | 5 (Herbicidal ratio of 90% or more (almost completely withered)) | 5 (Herbicidal ratio of 90% or more (almost completely withered)) | 0 (Herbicidal ratio of 5% or lower (almost no effect)) | 5 (Herbicidal ratio of 90% or more (almost completely withered)) | 0 (Herbicidal ratio of 5% or lower (almost no effect)) | 5 (Herbicidal ratio of 90% or more (almost completely withered)) | 0 (Herbicidal ratio of 5% or lower (almost no effect)) | 5 (Herbicidal ratio of 90% or more (almost completely withered)) | 3 (Herbicidal ratio of 40% or higher and lower than 70%) | 2 (Herbicidal ratio of 20% or higher and lower than 40%) | 0 (Herbicidal ratio of 5% or lower (almost no effect)) | 0 (Herbicidal ratio of 5% or lower (almost no effect)) | 0 (Herbicidal ratio of 5% or lower (almost no effect)) | 0 (Herbicidal ratio of 5% or lower (almost no effect)) | 3 (Herbicidal ratio of 40% or higher and lower than 70%) | 0 (Herbicidal ratio of 5% or lower (almost no effect)) |
| CCc1cc(Br)cc(C)c1C1=C(O)CC(CC(C)=O)C1=O (stereo not shown) [7-003] | 5 (Herbicidal ratio of 90% or more (almost completely withered)) | 5 (Herbicidal ratio of 90% or more (almost completely withered)) | 0 (Herbicidal ratio of 5% or lower (almost no effect)) | 5 (Herbicidal ratio of 90% or more (almost completely withered)) | 0 (Herbicidal ratio of 5% or lower (almost no effect)) | 5 (Herbicidal ratio of 90% or more (almost completely withered)) | 0 (Herbicidal ratio of 5% or lower (almost no effect)) | 5 (Herbicidal ratio of 90% or more (almost completely withered)) | 5 (Herbicidal ratio of 90% or more (almost completely withered)) | 0 (Herbicidal ratio of 5% or lower (almost no effect)) | 0 (Herbicidal ratio of 5% or lower (almost no effect)) | 0 (Herbicidal ratio of 5% or lower (almost no effect)) | 0 (Herbicidal ratio of 5% or lower (almost no effect)) | 0 (Herbicidal ratio of 5% or lower (almost no effect)) | 0 (Herbicidal ratio of 5% or lower (almost no effect)) | 0 (Herbicidal ratio of 5% or lower (almost no effect)) |
| CC(=O)CC1CC(O)=C(c2c(C)cc(-c3ccccc3)cc2C)C1=O (stereo not shown) [7-004] | 5 (Herbicidal ratio of 90% or more (almost completely withered)) | 5 (Herbicidal ratio of 90% or more (almost completely withered)) | 0 (Herbicidal ratio of 5% or lower (almost no effect)) | 5 (Herbicidal ratio of 90% or more (almost completely withered)) | 0 (Herbicidal ratio of 5% or lower (almost no effect)) | 5 (Herbicidal ratio of 90% or more (almost completely withered)) | 0 (Herbicidal ratio of 5% or lower (almost no effect)) | 5 (Herbicidal ratio of 90% or more (almost completely withered)) | 5 (Herbicidal ratio of 90% or more (almost completely withered)) | 5 (Herbicidal ratio of 90% or more (almost completely withered)) | 0 (Herbicidal ratio of 5% or lower (almost no effect)) | 0 (Herbicidal ratio of 5% or lower (almost no effect)) | 3 (Herbicidal ratio of 40% or higher and lower than 70%) | 0 (Herbicidal ratio of 5% or lower (almost no effect)) | 5 (Herbicidal ratio of 90% or more (almost completely withered)) | 2 (Herbicidal ratio of 20% or higher and lower than 40%) |
| CC(=O)CC1CC(O)=C(c2c(C)cc(-c3ccc(C(F)(F)F)cc3)cc2C)C1=O (stereo not shown) [7-005] | 5 (Herbicidal ratio of 90% or more (almost completely withered)) | 0 (Herbicidal ratio of 5% or lower (almost no effect)) | 0 (Herbicidal ratio of 5% or lower (almost no effect)) | 5 (Herbicidal ratio of 90% or more (almost completely withered)) | 0 (Herbicidal ratio of 5% or lower (almost no effect)) | 5 (Herbicidal ratio of 90% or more (almost completely withered)) | 1 (Herbicidal ratio of 5% or higher and lower than 20%) | 0 (Herbicidal ratio of 5% or lower (almost no effect)) | 4 (Herbicidal ratio of 70% or higher and lower than 90%) | 1 (Herbicidal ratio of 5% or higher and lower than 20%) | 0 (Herbicidal ratio of 5% or lower (almost no effect)) | 0 (Herbicidal ratio of 5% or lower (almost no effect)) | 0 (Herbicidal ratio of 5% or lower (almost no effect)) | 0 (Herbicidal ratio of 5% or lower (almost no effect)) | 0 (Herbicidal ratio of 5% or lower (almost no effect)) | 3 (Herbicidal ratio of 40% or higher and lower than 70%) |

Reference: patent publication US11000033B2, “Ketone or oxime compound, and herbicide” (NISSAN CHEMICAL CORPORATION, priority 2014, dated 2021)
